Measured values: article PMC5536191 (ACS chemical biology, 2017)
“Also recorded” adds a separate entry of the source.

What was measured:
T47D cells [1] = assay: H3Cit26 and H3K27Me3 levels after estradiol stimulation; assay type: cell-based
MCF7 cells = assay: as above; assay type: cell-based
Will-2 cells = assay: H3K27Me3 levels in DLBCL cells; assay type: cell-based
T47D cells [2] = assay type: cell-based
PRC2 complex = assay: PRC2 methyltransferase activity on histone H3 after PAD preincubation; assay type: biochemical, human; conditions: PAD preincubation with H3; Figure S1A and B
ERα = assay: Co-immunoprecipitation of PAD2 and ERα in MCF7 nuclear extracts; assay type: binding; conditions: MCF7 nuclear extracts post E2 stimulation
UTX and JMJD3 = assay: Co-immunoprecipitation with PAD2 in MCF7 nuclear extracts; assay type: binding; conditions: MCF7 nuclear extracts post E2 stimulation
PAD [3] = conditions: ref [46]; cited from earlier work
PAD [4] = assay: PAD inhibition by F-Amidine; assay type: biochemical; conditions: F-Amidine 1 mM, 15 min
PRC2 = conditions: F-Amidine 1 mM

C[C@]12CC[C@@H]3c4ccc(O)cc4CC[C@H]3[C@@H]1CC[C@@H]2O [E2, 17-β-estradiol]
H3K27Me3 level (T47D cells [1]; 100 nM, 1 h): modest reduction in H3K27Me3 levels | H3Cit26 signal (T47D cells [1]; E2 stimulation, after 2 h): greatly reduced | H3K27Me3 level (MCF7 cells; 100 nM, 4 h): modest reduction in H3K27Me3 levels | H3Cit26 signal (MCF7 cells; E2 stimulation, after 2 h): lost

CCN(c1cc(-c2ccc(CN3CCOCC3)cc2)cc(C(=O)NCc2c(C)cc(C)[nH]c2=O)c1C)C1CCOCC1 [EPZ-6438]
effect on H3K27Me3 increase of PAD2 knockdown cells (Will-2 cells; PAD2 knockdown cells treated with EZH2 inhibitor): attenuated | effect on baseline transcription before estradiol stimulation (T47D cells [2]; 5 μM EPZ-6438, 5 days, absence of estradiol): basal transcriptional level is increased relative to control cells; also recorded: increased baseline transcription prior to E2 stimulation

PAD4: Protein Arginine Deiminase type-4
effect on PRC2 catalyzed methylation, time and dose dependence (PRC2 complex): decrease PRC2 catalyzed methylation in a time- and dose-dependent manner

N=C(CF)NCCC[C@H](NC(=O)c1ccc(-c2ccccc2)cc1)c1nc2ccccc2[nH]1 [BB-F-Amidine, N1-[1,4′-Phenyl]benzoyl-N5-(2-fluoro-1-inimoethyl)-1-(1H-benzo[d]imidazole-2-yl)-L-ornithine amide]
H3K27Me3 increase by PAD inhibitor in EZH2 knockdown cells (Will-2 cells; EZH2 knockdown cells treated with PAD inhibitor): attenuated | increase in H3K27Me3 levels (Will-2 cells; PAD inhibitor treatment, DLBCL line (Will-2)): 4 fold

PAD2: Protein Arginine Deiminase type-2
co-immunoprecipitation of PAD2 and ERα (ERα): PAD2 and ERα co-immunoprecipitate | co-immunoprecipitation with UTX and JMJD3 (UTX and JMJD3): co-immunoprecipitates UTX and JMJD3 | effect on PRC2 catalyzed methylation, time and dose dependence (PRC2 complex): decrease PRC2 catalyzed methylation in a time- and dose-dependent manner

N=C(CF)NCCC[C@H](NC(=O)c1ccccc1)C(N)=O [F-Amidine, N-α-benzoyl-N5-(2-fluoro-1-iminoethyl)-L-ornithine amide]
PAD inhibition character (PAD [3]): highly selective, irreversible pan-PAD inhibitor | inhibition of PAD reaction (PAD [4]): completely inhibits the PAD reaction | effect on methyltransferase activity of PRC2 (PRC2): no effect on the methyltransferase activity of PRC2

CCOC(=O)CCNc1cc(N2CCc3ccccc3CC2)nc(-c2ccccn2)n1 [GSK-J4]
effect on E2-stimulated transcription of ERα-target genes (e.g. GDNF and KRT13) (T47D cells [2]; 400 nM GSK-J4, 5 days, baseline vs 60 min E2): downregulated
